Values quoted from earlier work in patent US20060286164A1 (priority 2004, published 2006).
“Also recorded” adds a separate entry of the source. Like-named read-outs stand apart in the source and are kept apart here.

How the values were obtained:
mouse = details: in vivo, po
Guinea Pig = details: in vivo, po
[1] = not given; remark: listed apart in the source
[2] = set by WHO from metabolic and toxicological data

In the case of `CCO` [Ethanol, Ethyl alcohol], the LD50 (mouse) is given as 7500 mg/kg, the LD50 (Guinea Pig) is given as 5560 mg/kg and the miscibility (chloroform, ether, glycerin and water) is given as “miscible”.

In the case of `CCOCCOCCO` [Transcutol, Diethylene glycol monoethyl ether], the LD50 (rat; in vivo, po) is given as 7.5 mg/kg, the solubility in water [1] is given as “soluble” and the solubility (ethanol, hexylene glycol and propylene glycol) is given as “soluble”. The solubility (vegetable oil) was “partially soluble”.

For `CC(C)Cc1ccc([C@H](C)C(=O)O)cc1` [(S)-(+)-Ibuprofen], the solubility in water [1] is given as “not soluble”.

In the case of `CC(C)Cc1ccc(C(C)C(=O)O)cc1` (racemic) [Ibuprofen, 2-(4-Isobutylphenyl)Propionic acid], the solubility in water [1] is given as “practically insoluble; also recorded: not soluble”.

In the case of `CCCCCCCC/C=C\CCCCCCCC(=O)O` [Oleic acid, (Z)-9-Octadecenoic acid], the LD50 (rat; IV) is given as 2.4 mg/kg.

In the case of `CC(O)CO` (stereo not shown) [propylene glycol, Propylene glycol], the acceptable daily intake [2] is listed as “up to 25 mg/kg body weight”.

In the case of Vitamin E, the solubility in water [1] is listed as “practically insoluble” and the solubility (acetone, ethanol, ether and vegetable oil) is listed as “freely soluble”.
